{
  "source": "patent US4129737A",
  "about": "“Process for the preparation of an 8-alkyl-5-oxo-5,8-dihydro-pyrido(2,3-d)pyrimidine-6-carboxylic acid” (priority 1972, dated 1978)",
  "key": {"[1]": {"test_system": "Klebs. pneumoniae", "test": "Minimum inhibitory concentration by agar dilution, Klebs. pneumoniae", "format": "cell-based", "conditions": "Klebsiella pneumoniae, 37° C., 18 hours, read-out: minimum inhibitory concentration (M.I.C.)", "experimental": "(§1) (a) Trypticase soya medium (T.S.A.), which is very suitable for culturing the majority of microorganisms; it has the following composition:\n(§2) (b) Ordinarily nutrient agar (N.A.), which is less rich in nutrients, corresponds to the following formulation: […]\n(§3) Table I gives the minimum inhibitory concentrations (expressed in μg/cm^3) for the various microorganisms tested on each medium.\n(§4) The products were tested on three Gram positive microorganisms (1 to 3) […] and on 10 Gram negative microorganisms (4 to 13).\n(§5) Table (II) gives the minimum inhibitory concentrations of the compounds of Examples XII to XVI, determined on the agar medium, N.A., and expressed in μg/cm^3."}, "[2]": {"test_system": "Klebs. pneumoniae 10.031", "test": "Average MIC, solid medium (nutrient agar) dilution method", "conditions": "Klebsiella pneumoniae, 10.031, 18 h, read-out: minimum inhibitory concentration, average"}, "[3]": {"test_system": "Pr. mirabilis", "test": "Minimum inhibitory concentration by agar dilution, Pr. mirabilis", "format": "cell-based", "conditions": "Proteus mirabilis, 37° C., 18 hours, read-out: minimum inhibitory concentration (M.I.C.)", "experimental": "as §1, §2, §3, §4, §5"}, "[4]": {"test_system": "Esch. coli. LRB 45", "test": "Average MIC, solid medium (nutrient agar) dilution method", "conditions": "Escherichia coli, 18 h, read-out: minimum inhibitory concentration, average"}, "[5]": {"test_system": "Staphylococcus 209 P", "test": "Minimum inhibitory concentration by agar dilution, Staphylococcus 209 P", "format": "cell-based", "conditions": "Staphylococcus, 37° C., 18 hours, read-out: minimum inhibitory concentration (M.I.C.)", "experimental": "as §1, §2, §3, §4, §5"}, "[6]": {"test_system": "Esch. coli. 54-127 OMS", "test": "Average MIC, solid medium (nutrient agar) dilution method", "conditions": "Escherichia coli, 18 h, read-out: minimum inhibitory concentration, average"}, "[7]": {"test_system": "B. pyocyaneus A22", "test": "Minimum inhibitory concentration by agar dilution, B. pyocyaneus A22", "format": "cell-based", "conditions": "Pseudomonas aeruginosa, A22, 37° C., 18 hours, read-out: minimum inhibitory concentration (M.I.C.)", "experimental": "as §1, §2, §3, §4, §5"}, "[8]": {"test_system": "B. subtilis", "test": "Minimum inhibitory concentration by agar dilution, B. subtilis", "format": "cell-based", "conditions": "Bacillus subtilis, 37° C., 18 hours, read-out: minimum inhibitory concentration (M.I.C.)", "experimental": "as §1, §2, §3, §4, §5"}, "[9]": {"test_system": "Esch. coli. 95 I.S.M.", "test": "Average MIC, solid medium (nutrient agar) dilution method", "conditions": "Escherichia coli, 18 h, read-out: minimum inhibitory concentration, average"}, "[10]": {"test_system": "S. oranienburg 10-66", "test": "Average MIC, solid medium (nutrient agar) dilution method", "conditions": "Salmonella enterica, 1066, 18 h, read-out: minimum inhibitory concentration, average"}, "[11]": {"test_system": "Gram-negative microorganisms", "test": "In vitro anti-microbial activity on agar media, overall", "format": "cell-based", "experimental": "as §4"}, "[12]": {"test_system": "Providencia 0223", "test": "Average MIC, solid medium (nutrient agar) dilution method", "conditions": "Providencia, 0223, 18 h, read-out: minimum inhibitory concentration, average"}, "[13]": {"test_system": "Esch. coli. Cho", "test": "Average MIC, solid medium (nutrient agar) dilution method", "conditions": "Escherichia coli, 18 h, read-out: minimum inhibitory concentration, average"}, "[14]": {"test_system": "Pr. vulgaris 12-53", "test": "Average MIC, solid medium (nutrient agar) dilution method", "conditions": "Proteus vulgaris, 1253, 18 h, read-out: minimum inhibitory concentration, average"}, "[15]": {"test_system": "Streptococcus DM19", "test": "Average MIC, solid medium (nutrient agar) dilution method", "conditions": "DM19, 18 h, read-out: minimum inhibitory concentration, average"}, "[16]": {"test_system": "Sh. sonnei I.P.S.", "test": "Average MIC, solid medium (nutrient agar) dilution method", "format": "cell-based", "conditions": "Shigella sonnei, 18 h, average of five determinations, read-out: minimum inhibitory concentration, average"}, "[17]": {"test_system": "Salm. typhi 0901", "test": "Average MIC, solid medium (nutrient agar) dilution method", "format": "cell-based", "conditions": "Salmonella enterica, 18 h, read-out: minimum inhibitory concentration, average"}, "[18]": {"test_system": "Esch. coli. LRB 67", "test": "Average MIC, solid medium (nutrient agar) dilution method", "conditions": "Escherichia coli, 18 h, read-out: minimum inhibitory concentration, average"}, "[19]": {"test_system": "B. subtilis 6633", "test": "Average MIC, solid medium (nutrient agar) dilution method", "conditions": "Bacillus subtilis, 6633, 18 h, read-out: minimum inhibitory concentration, average"}, "[20]": {"test_system": "Pr. morganii", "test": "Minimum inhibitory concentration by agar dilution, Pr. morganii", "format": "cell-based", "conditions": "Morganella morganii, 37° C., 18 hours, read-out: minimum inhibitory concentration (M.I.C.)", "experimental": "as §1, §2, §3, §4, §5"}, "[21]": {"test_system": "Arizona 6211", "test": "Average MIC, solid medium (nutrient agar) dilution method", "conditions": "18 h, read-out: minimum inhibitory concentration, average"}, "[22]": {"test_system": "Pr. morganii A 236", "test": "Average MIC, solid medium (nutrient agar) dilution method", "conditions": "Morganella morganii, A236, 18 h, read-out: minimum inhibitory concentration, average"}, "[23]": {"test_system": "Sh. sonnei", "test": "Minimum inhibitory concentration by agar dilution, Sh. sonnei", "format": "cell-based", "conditions": "Shigella sonnei, 37° C., 18 hours, read-out: minimum inhibitory concentration (M.I.C.)", "experimental": "as §1, §2, §3, §4, §5"}, "[24]": {"test_system": "Streptococcus A561", "test": "Average MIC, solid medium (nutrient agar) dilution method", "conditions": "A561, 18 h, read-out: minimum inhibitory concentration, average"}, "[25]": {"test_system": "Streptococcus", "test": "Minimum inhibitory concentration by agar dilution, Streptococcus Group A", "format": "cell-based", "conditions": "37° C., 18 hours, read-out: minimum inhibitory concentration (M.I.C.)", "experimental": "as §1, §2, §3, §4, §5"}, "[26]": {"test_system": "rats", "test": "Oral toxicity in rats", "format": "in vivo", "conditions": "doses as high as 4 g per kilogram"}, "[27]": {"test_system": "Staphylococcus 209P", "test": "Average MIC, solid medium (nutrient agar) dilution method", "conditions": "18 h, read-out: minimum inhibitory concentration, average"}, "[28]": {"test": "Toxicity, overall statement", "conditions": "in vivo"}, "[29]": {"conditions": "N.A. (nutrient agar, pH 6.8), Table I"}, "[30]": {"conditions": "T.S.A. (trypticase soya medium, pH 7.3)"}},
  "note": "Read-outs that look alike come from different tables or passages of the source.",
  "data": [
    {"smiles": "CCn1cc(C(=O)O)c(=O)c2cnc(N3CCNCC3)nc21", "note": "[Example VIII, 2-Piperazino-5-oxo-8-ethyl-5,8-dihydro-pyrido(2,3-d)pyrimidine-6-carboxylicacid]", "values": [
      {"measurement": "MIC", "setting": "[1]; [29]", "result": 0.8, "unit": "µg/mL"},
      {"measurement": "MIC", "setting": "[1]; [30]", "result": 1.6, "unit": "µg/mL"},
      {"measurement": "MIC", "setting": "[2]", "result": 1.88, "unit": "µg/mL"},
      {"measurement": "MIC", "setting": "[3]; [29]", "result": 0.8, "unit": "µg/mL"},
      {"measurement": "MIC", "setting": "[3]; [30]", "result": 0.8, "unit": "µg/mL"},
      {"measurement": "MIC", "setting": "[4]", "result": 2.04, "unit": "µg/mL"},
      {"measurement": "MIC", "setting": "[5]; [29]", "result": 12.5, "unit": "µg/mL"},
      {"measurement": "MIC", "setting": "[5]; [30]", "result": 12.5, "unit": "µg/mL"},
      {"measurement": "MIC", "setting": "[6]", "result": 5.66, "unit": "µg/mL"},
      {"measurement": "MIC", "setting": "[7]; [29]", "result": 25, "unit": "µg/mL"},
      {"measurement": "MIC", "setting": "[7]; [30]", "result": 12.5, "unit": "µg/mL"},
      {"measurement": "MIC", "setting": "[8]; [29]", "result": 3.1, "unit": "µg/mL"},
      {"measurement": "MIC", "setting": "[8]; [30]", "result": 6.2, "unit": "µg/mL"},
      {"measurement": "MIC", "setting": "[9]", "result": 5.14, "unit": "µg/mL"},
      {"measurement": "MIC", "setting": "[10]", "result": 27.5, "unit": "µg/mL"},
      {"measurement": "activity against Gram-negative microorganisms", "setting": "[11]; in vitro", "result": "particularly active against Gram-negative microorganisms"},
      {"measurement": "activity compared with nalidixic acid and the acid of Example III", "setting": "[11]; majority of the Gram negative microorganisms, Table III", "result": "more active on the majority of the Gram negative microorganisms than the 2 other substances"},
      {"measurement": "MIC", "setting": "[12]", "result": 16.2, "unit": "µg/mL"},
      {"measurement": "MIC", "setting": "[13]", "result": 2.66, "unit": "µg/mL"},
      {"measurement": "MIC", "setting": "[14]", "result": 0.36, "unit": "µg/mL"},
      {"measurement": "MIC", "setting": "[15]", "result": 100, "unit": "µg/mL"},
      {"measurement": "MIC", "setting": "[16]", "result": 0.56, "unit": "µg/mL"},
      {"measurement": "MIC", "setting": "[17]", "result": 2.06, "unit": "µg/mL"},
      {"measurement": "MIC", "setting": "[18]", "result": 1.2, "unit": "µg/mL"},
      {"measurement": "MIC", "setting": "[19]", "result": 8.1, "unit": "µg/mL"},
      {"measurement": "MIC", "setting": "[20]; [29]", "result": 0.8, "unit": "µg/mL"},
      {"measurement": "MIC", "setting": "[20]; [30]", "result": 0.8, "unit": "µg/mL"},
      {"measurement": "MIC", "setting": "[21]", "result": 1.26, "unit": "µg/mL"},
      {"measurement": "MIC", "setting": "[22]", "result": 0.4, "unit": "µg/mL"},
      {"measurement": "MIC", "setting": "[23]; [29]", "result": 0.8, "unit": "µg/mL"},
      {"measurement": "MIC", "setting": "[23]; [30]", "result": 0.8, "unit": "µg/mL"},
      {"measurement": "MIC", "setting": "[24]", "result": 13.7, "unit": "µg/mL"},
      {"measurement": "MIC", "setting": "[25]; [29]", "result": 25, "unit": "µg/mL"},
      {"measurement": "MIC", "setting": "[25]; [30]", "result": 25, "unit": "µg/mL"},
      {"measurement": "deaths", "setting": "[26]", "result": "no deaths were observed"},
      {"measurement": "MIC", "setting": "[27]", "result": 6.22, "unit": "µg/mL"},
      {"measurement": "toxicity", "setting": "[28]", "result": "very low toxicity"}
    ]}
  ]
}
